Results: ChEMBL document CHEMBL3132854, “Synthesis and anticancer activity evaluation of resveratrolchalcone conjugates” (2014)

Tests used:
Assay type in all cases: functional
[1] = system: HCT-116; assay: Cytotoxicity against human HCT116 cells by sulforhodamine B assay
[2] = system: CCRF-CEM; assay: Cytotoxicity against human CCRF-CEM cells by sulforhodamine B assay
[3] = system: OVCAR-3; assay: Cytotoxicity against human OVCAR3 cells by sulforhodamine B assay
[4] = Cytotoxicity against human OVCAR5 cells by sulforhodamine B assay
[5] = system: KM12; assay: Cytotoxicity against human KM12 cells by sulforhodamine B assay
[6] = system: MOLT-4; assay: Cytotoxicity against human MOLT4 cells by sulforhodamine B assay
[7] = system: LOX IMVI; assay: Cytotoxicity against human LOXIMVI cells by sulforhodamine B assay
[8] = system: OVCAR-8; assay: Cytotoxicity against human OVCAR8 cells by sulforhodamine B assay
[9] = system: SNB-75; assay: Cytotoxicity against human SNB75 cells by sulforhodamine B assay
[10] = system: DU-145; assay: Cytotoxicity against human DU145 cells by sulforhodamine B assay
[11] = system: SN12C; assay: Cytotoxicity against human SN12C cells by sulforhodamine B assay
[12] = system: SF-295; assay: Cytotoxicity against human SF295 cells by sulforhodamine B assay
[13] = Cytotoxicity against human NCI-ADR-RES cells by sulforhodamine B assay
[14] = system: NCI-H322M; assay: Cytotoxicity against human NCI-H322M cells by sulforhodamine B assay
[15] = system: SF-539; assay: Cytotoxicity against human SF539 cells by sulforhodamine B assay
[16] = system: COLO 205; assay: Cytotoxicity against human COLO205 cells by sulforhodamine B assay
[17] = Cytotoxicity against human OVCAR4 cells by sulforhodamine B assay
[18] = system: NCI-H226; assay: Cytotoxicity against human NCI-H226 cells by sulforhodamine B assay
[19] = system: RPMI-8226; assay: Cytotoxicity against human RPMI8226 cells by sulforhodamine B assay
[20] = system: RXF 393; assay: Cytotoxicity against human RXF393 cells by sulforhodamine B assay
[21] = system: K562; assay: Cytotoxicity against human K562 cells by sulforhodamine B assay
[22] = system: M14; assay: Cytotoxicity against human M14 cells by sulforhodamine B assay
[23] = system: U-251; assay: Cytotoxicity against human U251 cells by sulforhodamine B assay
[24] = system: A498; assay: Cytotoxicity against human A498 cells by sulforhodamine B assay
[25] = system: SK-MEL-2; assay: Cytotoxicity against human SK-MEL-2 cells by sulforhodamine B assay
[26] = system: ACHN; assay: Cytotoxicity against human ACHN cells by sulforhodamine B assay
[27] = system: SNB-19; assay: Cytotoxicity against human SNB19 cells by sulforhodamine B assay
[28] = system: UACC-62; assay: Cytotoxicity against human UACC62 cells by sulforhodamine B assay
[29] = system: MDA-MB-435; assay: Cytotoxicity against human MDA-MB-435 cells by sulforhodamine B assay
[30] = system: SK-OV-3; assay: Cytotoxicity against human SKOV3 cells by sulforhodamine B assay
[31] = system: Malme-3M; assay: Cytotoxicity against human MALME-3M cells by sulforhodamine B assay
[32] = system: NCI-H522; assay: Cytotoxicity against human NCI-H522 cells by sulforhodamine B assay
[33] = system: HOP-62; assay: Cytotoxicity against human HOP62 cells by sulforhodamine B assay
[34] = system: MCF7; assay: Cytotoxicity against human MCF7 cells by sulforhodamine B assay
[35] = system: SR; assay: Cytotoxicity against human SR cells by sulforhodamine B assay
[36] = system: BT-549; assay: Cytotoxicity against human BT549 cells by sulforhodamine B assay
[37] = system: SK-MEL-5; assay: Cytotoxicity against human SK-MEL-5 cells by sulforhodamine B assay
[38] = system: MDA-MB-468; assay: Cytotoxicity against human MDA-MB-468 cells by sulforhodamine B assay
[39] = system: SF-268; assay: Cytotoxicity against human SF268 cells by sulforhodamine B assay
[40] = Cytotoxicity against human UO31 cells by sulforhodamine B assay
[41] = read-out: LC50 (the source's name)

COc1ccc(C(=O)/C=C/c2ccc(/C=C/c3cc(OC)c(OC)c(OC)c3)cc2)cc1
GI50 [1]: 2620 nM | TGI [1]: > 100 µM | CC50 [1, 41]: > 100 µM | GI50 [2]: 4.15 µM | TGI [2]: > 100 µM | CC50 [2, 41]: > 100 µM | GI50 [3]: 3.92 µM | TGI [3]: 14.3 µM | CC50 [3, 41]: 74.4 µM | GI50 ([4]; OVCAR-5): 34.1 µM | TGI ([4]; OVCAR-5): > 100 µM | CC50 ([4]; OVCAR-5, read-out: LC50 (the source's name)): > 100 µM | GI50 [5]: 3.75 µM | TGI [5]: 83.9 µM | CC50 [5, 41]: > 100 µM | GI50 [6]: 3.49 µM | TGI [6]: > 100 µM | CC50 [6, 41]: > 100 µM | GI50 [7]: 3.76 µM | TGI [7]: 60.9 µM | CC50 [7, 41]: > 100 µM | GI50 [8]: 3.76 µM | TGI [8]: 61.1 µM | CC50 [8, 41]: > 100 µM | GI50 [9]: 5.5 µM | TGI [9]: 47.7 µM | CC50 [9, 41]: > 100 µM | GI50 [10]: 10.2 µM | TGI [10]: > 100 µM | CC50 [10, 41]: > 100 µM | GI50 [11]: 9.61 µM | TGI [11]: > 100 µM | CC50 [11, 41]: > 100 µM | GI50 [12]: 9.01 µM | TGI [12]: > 100 µM | CC50 [12, 41]: > 100 µM | GI50 [13]: 5.46 µM | TGI [13]: > 100 µM | CC50 [13, 41]: > 100 µM | GI50 [14]: 1980 nM | TGI [14]: > 100 µM | CC50 [14, 41]: > 100 µM | GI50 [15]: 12.2 µM | TGI [15]: 78.3 µM | CC50 [15, 41]: > 100 µM | GI50 [16]: 13.7 µM | TGI [16]: > 100 µM | CC50 [16, 41]: > 100 µM | GI50 ([17]; OVCAR-4): 6.31 µM | TGI ([17]; OVCAR-4): 47.3 µM | CC50 ([17]; OVCAR-4, read-out: LC50 (the source's name)): > 100 µM | GI50 [18]: 3.57 µM | TGI [18]: 22.8 µM | CC50 [18, 41]: > 100 µM | GI50 [19]: 2570 nM | TGI [19]: 8.54 µM | CC50 [19, 41]: > 100 µM | GI50 [20]: 8.01 µM | TGI [20]: 43.6 µM | CC50 [20, 41]: > 100 µM | GI50 [21]: 3.03 µM | TGI [21]: > 100 µM | CC50 [21, 41]: > 100 µM | GI50 [22]: 9.61 µM | TGI [22]: > 100 µM | CC50 [22, 41]: > 100 µM | GI50 [23]: 5.09 µM | TGI [23]: 54.7 µM | CC50 [23, 41]: > 100 µM | GI50 [24]: 18.6 µM | TGI [24]: > 100 µM | CC50 [24, 41]: > 100 µM | GI50 [25]: 1890 nM | TGI [25]: > 100 µM | CC50 [25, 41]: > 100 µM | GI50 [26]: 11.6 µM | TGI [26]: > 100 µM | CC50 [26, 41]: > 100 µM | GI50 [27]: 21.1 µM | TGI [27]: > 100 µM | CC50 [27, 41]: > 100 µM | GI50 [28]: 7.13 µM | TGI [28]: > 100 µM | CC50 [28, 41]: > 100 µM | GI50 [29]: 4.28 µM | TGI [29]: 47.7 µM | CC50 [29, 41]: > 100 µM | GI50 [30]: 15.6 µM | TGI [30]: 64.5 µM | CC50 [30, 41]: > 100 µM | GI50 [31]: 13.2 µM | TGI [31]: > 100 µM | CC50 [31, 41]: > 100 µM | GI50 [32]: 3.3 µM | TGI [32]: 30.7 µM | CC50 [32, 41]: > 100 µM | GI50 [33]: 1280 nM | TGI [33]: 63.8 µM | CC50 [33, 41]: > 100 µM | GI50 [34]: 2180 nM | TGI [34]: 36.6 µM | CC50 [34, 41]: > 100 µM | GI50 [35]: 1980 nM | TGI [35]: > 100 µM | CC50 [35, 41]: > 100 µM | GI50 [36]: 3.36 µM | TGI [36]: 16.8 µM | CC50 [36, 41]: > 100 µM | GI50 [37]: 3.39 µM | TGI [37]: 19.2 µM | CC50 [37, 41]: > 100 µM | GI50 [38]: 3.39 µM | TGI [38]: 48.7 µM | CC50 [38, 41]: > 100 µM | GI50 [39]: 6.08 µM | TGI [39]: 88.3 µM | CC50 [39, 41]: > 100 µM | GI50 ([40]; UO-31): 4.64 µM | TGI ([40]; UO-31): > 100 µM | CC50 ([40]; UO-31, read-out: LC50 (the source's name)): > 100 µM
